Data taken from PMC4753485, “Selective potentiation of 2-APB-induced activation of TRPV1–3 channels by acid” (Scientific Reports, 2016).
Values joined by “and” are separate entries in the source; they are usually repeats but may differ in a detail not shown here. Identical values can stand only once. Like-named read-outs stand apart in the source and are kept apart here.

Key:
mouse TRPV3 = biological target: T1, mouse TRPV3 (Mus musculus, UniProt Q8K424); assay: Whole-cell recordings of TRPV3 currents in HEK293 cells; assay type: cell-based; conditions: for EC50: EC50 of 2-APB-evoked TRPV3 whole-cell current, Vh −60 mV; for EC50 / Hill coefficient nH of 2-APB concentration-response: after full sensitization
T1 construct: Full-length cDNA for murine TRPV3 was isolated and subcloned into pIRES2-EGFP; expressed in transfected cells; host or cells: HEK293 (transient)
T1 sequence (Q8K424 1-791): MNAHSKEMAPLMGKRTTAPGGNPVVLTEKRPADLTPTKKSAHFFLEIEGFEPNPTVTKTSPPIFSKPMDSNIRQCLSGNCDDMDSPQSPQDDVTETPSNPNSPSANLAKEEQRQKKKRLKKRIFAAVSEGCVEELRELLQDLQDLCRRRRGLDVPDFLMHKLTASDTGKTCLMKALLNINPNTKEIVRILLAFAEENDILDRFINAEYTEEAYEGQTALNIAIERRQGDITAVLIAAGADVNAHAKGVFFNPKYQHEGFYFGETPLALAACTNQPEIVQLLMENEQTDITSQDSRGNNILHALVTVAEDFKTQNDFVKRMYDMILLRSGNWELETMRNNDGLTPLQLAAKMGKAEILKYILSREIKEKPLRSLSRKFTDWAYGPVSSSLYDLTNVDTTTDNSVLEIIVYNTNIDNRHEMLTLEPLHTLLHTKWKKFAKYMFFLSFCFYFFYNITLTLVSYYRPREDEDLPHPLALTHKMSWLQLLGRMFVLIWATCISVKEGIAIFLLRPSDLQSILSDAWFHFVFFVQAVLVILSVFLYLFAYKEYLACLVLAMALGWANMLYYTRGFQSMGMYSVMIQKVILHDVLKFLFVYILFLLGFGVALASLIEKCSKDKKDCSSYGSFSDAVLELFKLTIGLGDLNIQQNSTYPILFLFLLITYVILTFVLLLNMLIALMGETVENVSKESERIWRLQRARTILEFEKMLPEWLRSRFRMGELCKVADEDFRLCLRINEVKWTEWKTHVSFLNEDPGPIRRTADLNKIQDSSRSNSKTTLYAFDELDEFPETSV
Procedure: The resulting mutations were verified by DNA sequencing.
Whole-cell recordings were performed the following day. […] Camphor was purchased from Acros (New Jersey, USA).

[1] = 1H-NMR and mass spectrometry of compounds in solution; conditions: 1H-NMR in PBS and mass spectrometry
Procedure: The solution NMR samples were prepared at the final concentration of 1 mM for the test compound in PBS at three different pH values (5.5, 7.4 and 8.5). […] One-dimensional (1D) ^1H NMR spectra were collected with 2-s delays using a standard Varian 1D watergate pulse sequence. Two-dimensional (2D) ^1H NMR TOCSY (mixing time 100 ms) and NOESY (mixing time 500 ms) spectra were collected using standard Varian TOCSY and NOESY pulse sequences. All spectra were processed using NMRPipe[45] with 1D ^1H spectra analyzed using ACD/NMR Processor (www.acdlabs.com) while 2D ^1H spectra analyzed using SPARKY[46]. In TOCSY, cross-peaks were potentially generated between all resonances within a spin system, while in NOESY, the integrated intensity of a given cross-peak was interpreted in terms of the distance between the two hydrogen atoms that gave rise to the peak.
The molecular mass was then measured by using positive and negative ion electrospray ionization mass spectrometry (ESI-MS, Thermo Fisher Scientific Inc., Waltham, MA).

TRPM8 = TRPM8 (Rattus norvegicus, UniProt Q8R455); assay: cell-based; conditions: for IC50: IC50 for inhibition of menthol-evoked TRPM8 current, 100 μM menthol
TRPM8, sequence (Q8R455 whole entry): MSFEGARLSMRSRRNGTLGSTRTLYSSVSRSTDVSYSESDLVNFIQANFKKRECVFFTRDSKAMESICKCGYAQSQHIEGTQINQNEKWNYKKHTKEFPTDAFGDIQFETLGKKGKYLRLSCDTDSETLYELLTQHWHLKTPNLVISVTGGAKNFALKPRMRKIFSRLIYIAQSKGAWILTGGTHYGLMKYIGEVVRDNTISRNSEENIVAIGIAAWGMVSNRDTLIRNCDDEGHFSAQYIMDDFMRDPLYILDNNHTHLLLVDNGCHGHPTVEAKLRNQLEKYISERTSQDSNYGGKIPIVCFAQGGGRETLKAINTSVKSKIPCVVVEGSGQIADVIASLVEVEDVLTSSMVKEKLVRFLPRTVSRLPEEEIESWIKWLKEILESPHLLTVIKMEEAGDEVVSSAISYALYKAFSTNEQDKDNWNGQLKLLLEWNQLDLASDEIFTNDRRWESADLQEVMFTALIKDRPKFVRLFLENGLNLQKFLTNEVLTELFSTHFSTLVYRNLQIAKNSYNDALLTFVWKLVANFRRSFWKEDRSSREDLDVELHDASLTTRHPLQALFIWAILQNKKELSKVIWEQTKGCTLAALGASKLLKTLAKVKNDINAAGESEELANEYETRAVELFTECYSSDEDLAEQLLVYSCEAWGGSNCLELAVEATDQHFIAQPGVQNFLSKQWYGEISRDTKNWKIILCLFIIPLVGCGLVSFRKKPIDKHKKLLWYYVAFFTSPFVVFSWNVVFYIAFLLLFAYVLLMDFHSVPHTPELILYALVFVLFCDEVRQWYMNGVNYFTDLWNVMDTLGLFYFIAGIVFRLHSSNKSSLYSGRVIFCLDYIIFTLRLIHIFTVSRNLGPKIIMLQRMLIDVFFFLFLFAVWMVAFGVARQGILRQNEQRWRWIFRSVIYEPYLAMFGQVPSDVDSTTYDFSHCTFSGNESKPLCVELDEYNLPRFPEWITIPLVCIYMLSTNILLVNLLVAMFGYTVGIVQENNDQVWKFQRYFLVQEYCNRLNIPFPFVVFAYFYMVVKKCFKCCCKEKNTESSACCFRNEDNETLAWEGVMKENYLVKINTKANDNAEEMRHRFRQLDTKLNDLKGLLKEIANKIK
Excerpt: (§1) Full-length cDNA for murine TRPV3 was isolated and subcloned into pIRES2-EGFP, as previously described. The wild-type rat TRPV1, TRPV2 and TRPM8 cDNAs were generously provided by Dr. Feng Qin (State University of New York at Buffalo, Buffalo). All mutations were made using either QuikChange® XL site-directed mutagenesis kit (Agilent Technologies) or the overlap-extension polymerase chain reaction (PCR) method as previously described. The resulting mutations were verified by DNA sequencing. HEK293 cells were grown in DMEM containing 4.5 mg/ml glucose, 10% heat-inactivated fetal bovine serum, 50 units/ml penicillin, and 50 μg/ml streptomycin. For electrophysiological experiments, cells were seeded in 35 mm culture dishes and transfected with the desired DNA constructs using Lipofectamine 2000 (Invitrogen) following the protocol provided by the manufacturer. Stable TRPV3 expressing cells were selected in the G418-containing medium. For intracellular Ca^2+ measurements, cells were transfected with the desired DNA constructs in the wells of 96-well plates without pre-seeding using Lipofectamine 2000 (Invitrogen) as described.
(§2) Transfected HEK293 cells were reseeded on 12 mm round glass coverslips (Warner Instruments) one day after transfection. Whole-cell recordings were performed the following day. Recording pipettes were pulled from borosilicate glass capillaries (Sutter or World Precision Instruments) to 2–4 MΩ when filled with internal solution containing (in mM) 140 CsCl, 2.0 MgCl2, 5 EGTA, 10 HEPES, pH 7.4. Bathing solution contained (in mM) 140 NaCl, 5 KCl, 5 EGTA, 1 MgCl2, 10 glucose and 10 HEPES, pH 7.4. Isolated cells were voltage clamped in the whole-cell mode using an EPC10 amplifier (HEKA Instruments Inc). Voltage commands were made from the Patchmaster program, and the currents were recorded at 5 kHz. […] Whole-cell recordings were typically sampled at 5 kHz and filtered at 1 kHz. The compensation of pipette series resistance and capacitance were taken by using the built-in circuitry of the amplifier (>80%) to reduce voltage errors. Exchange of external solutions was performed using a gravity-driven local perfusion system (Automate Scientific). Channel activators were diluted into the recording solution at the desired final concentrations and applied to the cell through perfusion. As determined by the conductance tests, the solution around a patch under study was fully controlled by the application of a solution with a flow rate of 100 μl/min or greater. […] The acidic solutions contained (in mM): 140 NaCl, 5 KCl, 5 EGTA, 1 MgCl2, 10 glucose, and 10 MES, with pH adjusted to desired values by NaOH. For inside-out recordings, both the pipette solution and bath solution contained (in mM) 140 NaCl, 5 KCl, 5 EGTA, 1 MgCl2, 10 HEPES, pH 7.4. Excised patches were held constantly at desired potentials while compounds were repetitively applied and washed from the bath. For recordings from HEK293 cells under acidic pH conditions, the solution also contained 50 μM amiloride as an inhibitor of the native ASIC channels. Camphor was purchased from Acros (New Jersey, USA). Diphenyl borate (DPB) was synthesized by Beijing Realchem Technology Company (Beijing, China). Other chemicals were purchased from Sigma (Sigma, St. Louis, MO). Water-insoluble reagents were dissolved in either 100% ethanol or DMSO to make stock solutions and were diluted in the bathing solution at appropriate concentrations before experiments. […] All experiments except those for heat activation were performed at room temperature (22–24 °C).

TRPV2 = TRPV2 (Rattus norvegicus, UniProt Q9WUD2); assay: cell-based; conditions: for EC50: EC50 of 2-APB-evoked TRPV2 whole-cell current
TRPV2, sequence (Q9WUD2 whole entry): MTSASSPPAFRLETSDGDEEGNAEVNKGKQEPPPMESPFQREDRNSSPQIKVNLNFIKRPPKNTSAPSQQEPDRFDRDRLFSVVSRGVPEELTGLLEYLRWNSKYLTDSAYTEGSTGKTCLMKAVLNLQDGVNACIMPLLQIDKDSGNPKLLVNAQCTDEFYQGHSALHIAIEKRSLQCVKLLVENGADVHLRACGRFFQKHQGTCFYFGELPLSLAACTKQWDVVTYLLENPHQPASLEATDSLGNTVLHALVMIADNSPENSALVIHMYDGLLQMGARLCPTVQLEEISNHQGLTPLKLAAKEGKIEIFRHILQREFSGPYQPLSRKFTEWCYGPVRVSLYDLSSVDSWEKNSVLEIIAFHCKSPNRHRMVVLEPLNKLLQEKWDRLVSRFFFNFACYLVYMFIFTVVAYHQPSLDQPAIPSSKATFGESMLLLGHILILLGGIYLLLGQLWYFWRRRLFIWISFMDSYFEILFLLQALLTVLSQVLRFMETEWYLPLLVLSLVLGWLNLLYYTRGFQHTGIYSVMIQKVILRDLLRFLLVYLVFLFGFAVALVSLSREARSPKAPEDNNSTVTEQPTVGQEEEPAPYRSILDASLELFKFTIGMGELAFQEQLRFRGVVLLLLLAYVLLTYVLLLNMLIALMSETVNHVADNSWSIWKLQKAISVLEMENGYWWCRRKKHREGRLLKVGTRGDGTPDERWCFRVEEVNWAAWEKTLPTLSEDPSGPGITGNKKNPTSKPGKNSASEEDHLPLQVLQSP
Excerpt: as §1, §2

TRPV3 [2] = biological target: T2, TRPV3 (Mus musculus, UniProt Q8K424); assay: cell-based
Excerpt: as §1

TRPV1 = biological target: T3, TRPV1 (Rattus norvegicus, UniProt O35433); assay: Inside-out patch recordings from TRPV1-expressing HEK293 cells; assay type: cell-based; conditions: +60 mV
T3 construct: expressed in transfected cells; host or cells: HEK293
T3 sequence (O35433 whole entry): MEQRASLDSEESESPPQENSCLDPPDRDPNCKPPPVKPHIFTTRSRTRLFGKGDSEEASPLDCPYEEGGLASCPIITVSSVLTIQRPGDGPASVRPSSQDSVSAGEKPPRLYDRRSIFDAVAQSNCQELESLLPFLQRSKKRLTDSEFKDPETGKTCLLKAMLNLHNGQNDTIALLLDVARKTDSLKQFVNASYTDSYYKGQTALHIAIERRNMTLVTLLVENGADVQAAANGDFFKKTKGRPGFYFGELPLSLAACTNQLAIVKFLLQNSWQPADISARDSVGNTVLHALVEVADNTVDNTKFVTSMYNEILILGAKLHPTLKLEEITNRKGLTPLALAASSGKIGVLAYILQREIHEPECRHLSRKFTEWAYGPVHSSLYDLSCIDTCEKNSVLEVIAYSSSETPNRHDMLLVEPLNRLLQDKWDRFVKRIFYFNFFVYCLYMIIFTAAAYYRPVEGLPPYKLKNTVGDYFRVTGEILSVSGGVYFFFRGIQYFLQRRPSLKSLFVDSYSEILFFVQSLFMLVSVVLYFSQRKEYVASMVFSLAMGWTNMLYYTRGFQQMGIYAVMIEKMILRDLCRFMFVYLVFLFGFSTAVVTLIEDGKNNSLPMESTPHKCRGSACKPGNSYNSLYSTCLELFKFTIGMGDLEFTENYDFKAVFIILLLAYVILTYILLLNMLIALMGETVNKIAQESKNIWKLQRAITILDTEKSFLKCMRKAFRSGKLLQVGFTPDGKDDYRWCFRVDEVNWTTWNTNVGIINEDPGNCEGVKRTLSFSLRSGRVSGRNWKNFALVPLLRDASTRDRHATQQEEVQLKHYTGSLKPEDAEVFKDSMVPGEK
Excerpt: as §1, with “For intracellular Ca^2+ measurements, cells were transfected with the desired DNA constructs in the wells of 96-well plates without pre-seeding using Lipofectamine 2000 (Invitrogen) as described.” left out
(§3) Transfected HEK293 cells were reseeded on 12 mm round glass coverslips (Warner Instruments) one day after transfection. […] Voltage commands were made from the Patchmaster program, and the currents were recorded at 5 kHz. […] As determined by the conductance tests, the solution around a patch under study was fully controlled by the application of a solution with a flow rate of 100 μl/min or greater. […]

TRPV1(E600Q/T633A) = biological target: T4, TRPV1(E600Q/T633A) (Rattus norvegicus, UniProt O35433, E600Q/T633A); assay: Whole-cell recordings of TRPV1(E600Q/T633A) in HEK293 cells; assay type: cell-based; conditions: −60 mV
T4 construct: expressed in transfected cells; host or cells: HEK293
T4 sequence (O35433 whole entry E600Q/T633A): as the sequence (O35433 whole entry) above, with E600Q, T633A counted along it
Excerpt: as §1, with “For intracellular Ca^2+ measurements, cells were transfected with the desired DNA constructs in the wells of 96-well plates without pre-seeding using Lipofectamine 2000 (Invitrogen) as described.” left out
as §3

TRPV3 [3] = biological target: T2, TRPV3; conditions: 32 °C
Excerpt: as §1

[4] = system: TRPV3 linker 2–3 mutants (L508R, D512N, S518V, A520S); conditions: 100 μM 2-APB; whole-cell and inside-out; after sensitization with 500 μM 2-APB
Excerpt: as §1, with “For intracellular Ca^2+ measurements, cells were transfected with the desired DNA constructs in the wells of 96-well plates without pre-seeding using Lipofectamine 2000 (Invitrogen) as described.” left out
as §3

[5] = no reference given; cited from earlier work

## c1ccc(B(OB(c2ccccc2)c2ccccc2)c2ccccc2)cc1 [DPBA, diphenylboronic anhydride]
Mouse TRPV3; 5 μM DPBA, after sensitization with 30 μM DPBA
  Increase of evoked current by acid (pH 5.5): ~ 7 fold
[1]
  Stability in solution: easily hydrolyzed to DPB

## OC(c1ccccc1)c1ccccc1 [DPM, diphenyl methanol]
Mouse TRPV3; pH 7.4 (30 or 500 μM) or pH 5.5 (30 μM only), after sensitization with 100 μM 2-APB
  TRPV3 current elicited: no detectable current

## CC12CCC(CC1=O)C2(C)C (stereo not drawn) [camphor]
Mouse TRPV3; 3 mM camphor, after sensitization with 100 μM 2-APB
  Effect of acid (pH 5.5) on evoked TRPV3 current: slowed down the current development

## NCCOB(c1ccccc1)c1ccccc1 [2-APB, 2-aminoethoxydiphenyl borate]
Mouse TRPV3; 10 μM 2-APB, pH 8.5 to 4.5, after sensitization with 100 μM 2-APB
  Half-maximal pH of 2-APB-activated TRPV3 currents: 6.70 ± 0.02
Mouse TRPV3; pH 5.5
  EC50: 3.3 µM and 3.34 µM
  Hill coefficient nH of 2-APB concentration-response: 2.0 ± 0.3 and 1.98 ± 0.34
Mouse TRPV3; pH 7.4
  EC50: 36.2 ± 2.1 µM
  Hill coefficient nH of 2-APB concentration-response: 1.8 ± 0.2 and 1.76 ± 0.17
TRPM8; HEK293, pH 5.5, read-out: Inhibition of menthol-evoked TRPM8 current
  inhibition at 10 µM: 84 ± 2%
TRPM8; HEK293, pH 6, read-out: Inhibition of menthol-evoked TRPM8 current
  inhibition at 10 µM: 69 ± 3%
TRPM8; HEK293, pH 7.4, read-out: Inhibition of menthol-evoked TRPM8 current
  inhibition at 10 µM: 24 ± 2%
TRPM8; pH 5.5
  IC50: 3.1 µM and 3.07 µM
  Hill coefficient nH of inhibition curve: 1.5 ± 0.1 and 1.49 ± 0.08
TRPM8; pH 7.4
  IC50: 20.5 µM
  Hill coefficient nH of inhibition curve: 1.4 ± 0.3 and 1.41 ± 0.28
TRPV2; pH 5.5
  EC50: 112 ± 1.2 µM
  Hill coefficient nH of 2-APB concentration-response: 5.2 ± 0.3 and 5.26 ± 0.35
TRPV2; pH 7.4
  EC50: 522 ± 10.2 µM
  Hill coefficient nH of 2-APB concentration-response: 4.3 ± 0.3 and 4.34 ± 0.35
TRPV3 [2]
  EC50: 8.8 ± 1.5 µM
TRPV3 [2]; 300 μM 2-APB
  Drop of cytosolic pH: ~ 0.35 pH unit
TRPV1; 100 μM 2-APB
  Increase of peak current at pH 5.5 over pH 7.4, cytoplasmic side: more than 2 fold
TRPV1(E600Q/T633A); 10 μM 2-APB
  Effect of lowering extracellular pH to 5.5 on response: strongly enhanced
TRPV3 [3]; 166 μM 2-APB
  Effect of reducing extracellular pH to 5.5 on Ca2+ response: not further increased
TRPV3 [3]; low to moderate 2-APB concentrations (6–55 μM)
  Effect of reducing extracellular pH to 5.5 on Fluo-4 fluorescence intensity: markedly enhanced
[4]
  Effect of low pH (5.5) on response to 2-APB in mutant channels: greatly increased
[5]
  pKa of the amino group: 9.6
[1]
  Stability in solution: easily hydrolyzed to DPB

## OB(c1ccccc1)c1ccccc1 [DPB]
Mouse TRPV3; 10 μM DPB, after sensitization with 100 μM 2-APB
  Increase of evoked current by acidic pH (5.5 versus 7.4): about 5 fold

## COc1cc(CNC(=O)CCCC/C=C/C(C)C)ccc1O [capsaicin]
TRPV1; 0.1 μM capsaicin
  Effect of intracellular acid (pH 5.5) on evoked current: did not enhance
TRPV1(E600Q/T633A); 0.01 μM capsaicin
  Decrease of elicited current by lowering extracellular pH to 5.5: nearly one-half

## CC1CCC(C(C)C)C(O)C1 (stereo not drawn) [menthol]
Mouse TRPV3; HEK293, pH 5.5, read-out: Inhibition of evoked TRPV3 current by acid (pH 5.5)
  inhibition at 1000 µM: ~48%
